Test results from US11479531B2, “Deoxyuridine triphosphatase inhibitors” (University of Southern California, priority 2015, dated 2022).

How the values were obtained:
[1] = system: colorectal (HCT116 and SW620) cell line models; test: MTS growth inhibition assay; assay type: cell-based; conditions: increasing concentrations of 5-FU between 0 and 100 μmol/L; both colorectal cancer cell lines (HCT116, SW620)
Method: The Cell Titer AQueous MTS assay (Promega) is carried out according to the manufacturers guidelines. […] The combination effect is determined by the combination index (CI) method utilizing Calcusyn software (Biosoft, Ferguson, Mo.). […] CI values <1, synergism; 1-1.2, additive and >1.2, antagonism.
Test compounds are evaluated for their antitumor activity in colorectal cancer cells using the MTS growth inhibition assay. HCT116 and SW620 cells are exposed to increasing concentrations of each agent for 72 hours and growth inhibition is directly compared to vehicle-treated controls. The NSCLC cell lines A549 and H1299 are exposed to increasing concentrations of each agent for 72 hours and growth inhibition is directly compared to vehicle-treated controls.
Simultaneous treatment with increasing concentrations of 5-FU and a test compound at fixed concentrations of 25 μmol/L is determined.

[2] = system: colorectal (HCT116), breast (MCF-7) and non-small cell lung (H1299, A549, H358 and H460) cell line models; test: Colony forming assay; assay type: cell-based; conditions: increasing concentrations of FUdR between 0.5 and 2.5 μmol/L; all cell lines evaluated
Method: Colony forming assay showing the ability of colon (SW620, HCT116), non-small cell lung (A549, H460, H1299 and H358) and breast (MCF7) cancer cells to survive and proliferate following transient 24 hour exposure to test compounds, FUdR and combinations are determined. Specifically, cells are seeded at densities between 50 and 100 cells/well in 24-well plates. […] After 24 hours, drug is removed, cells are rinsed and allowed to outgrow for 10-14 days. At the conclusion of the outgrowth, cells are fixed in 60% ice cold methanol and stained with 0.1% crystal violet, scanned and counted. Data is presented as percentage of untreated controls (mean±SD). Fraction affected and combination indexes are calculated according to the method of Chou and Talalay where <1 is indicative of a synergistic drug interaction.
Colony forming assays are performed to evaluate the effectiveness of test compounds alone and in combination with the fluoropyrimidine thymidylate synthase (TS) inhibitor fluorodeoxyuridine (FUdR) at reducing cancer cell viability in colorectal (HCT116), breast (MCF-7) and non-small cell lung (H1299, A549, H358 and H460) cell line models.

| SMILES | growth inhibition [1] | colonies formed [2] |
| --- | --- | --- |
| O=c1[nH]cc(F)c(=O)[nH]1 [5-FU, 5-fluorouracil] | dose-dependent increases in growth inhibition | – |
| O=c1[nH]c(=O)n([C@H]2C[C@H](O)[C@@H](CO)O2)cc1F [FUdR, fluorodeoxyuridine] | – | dose-dependent decreases in colonies formed |
